Assay results as given in article PMC6770154, “A Multi-Biochemical and In Silico Study on Anti-Enzymatic Actions of Pyroglutamic Acid against PDE-5, ACE, and Urease Using Various Analytical Techniques: Unexplored Pharmacological Properties and Cytotoxicity Evaluation” (Biomolecules, 2019).

Columns and labels:
Jack bean urease (JBU) = Jack bean urease (JBU) (Canavalia ensiformis, UniProt P07374); test: ESI-MS monitoring of urea depletion; assay type: biochemical
[1] = biological target: human angiotensin-converting enzyme (ACE) (Homo sapiens, UniProt P12821); test: spectrophotometric hippuric acid formation, % inhibition at […]; assay type: biochemical
[2] = biological target: T1, phosphodiesterase-5A1 (PDE5A1) (Homo sapiens, UniProt O76074); test: biochemical
T1 construct: gene PDE5A

Chain of Jack bean urease (JBU) (P07374 whole entry, looked up): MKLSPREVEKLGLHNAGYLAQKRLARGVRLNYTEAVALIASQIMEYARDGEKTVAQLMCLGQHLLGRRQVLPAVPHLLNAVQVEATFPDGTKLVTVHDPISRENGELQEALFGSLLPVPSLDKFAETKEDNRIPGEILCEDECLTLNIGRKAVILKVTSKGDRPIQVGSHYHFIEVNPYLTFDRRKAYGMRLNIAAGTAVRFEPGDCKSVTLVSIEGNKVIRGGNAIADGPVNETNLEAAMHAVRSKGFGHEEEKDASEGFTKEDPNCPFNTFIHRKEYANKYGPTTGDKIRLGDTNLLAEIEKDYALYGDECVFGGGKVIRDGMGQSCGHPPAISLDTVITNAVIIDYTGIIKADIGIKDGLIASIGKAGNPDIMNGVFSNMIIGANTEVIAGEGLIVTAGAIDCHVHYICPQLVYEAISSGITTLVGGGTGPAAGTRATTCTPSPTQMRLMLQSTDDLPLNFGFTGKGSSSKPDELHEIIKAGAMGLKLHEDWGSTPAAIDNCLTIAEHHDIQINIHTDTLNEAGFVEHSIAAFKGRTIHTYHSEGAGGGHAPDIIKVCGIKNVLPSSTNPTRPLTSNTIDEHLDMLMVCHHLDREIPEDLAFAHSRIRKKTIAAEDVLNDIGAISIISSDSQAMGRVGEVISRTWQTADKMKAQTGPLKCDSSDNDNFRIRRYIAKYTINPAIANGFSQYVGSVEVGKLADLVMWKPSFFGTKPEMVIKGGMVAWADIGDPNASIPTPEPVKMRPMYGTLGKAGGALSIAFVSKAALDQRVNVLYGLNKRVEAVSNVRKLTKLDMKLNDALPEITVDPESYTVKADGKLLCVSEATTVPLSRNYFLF
Chain of human angiotensin-converting enzyme (ACE) (P12821 30-1306): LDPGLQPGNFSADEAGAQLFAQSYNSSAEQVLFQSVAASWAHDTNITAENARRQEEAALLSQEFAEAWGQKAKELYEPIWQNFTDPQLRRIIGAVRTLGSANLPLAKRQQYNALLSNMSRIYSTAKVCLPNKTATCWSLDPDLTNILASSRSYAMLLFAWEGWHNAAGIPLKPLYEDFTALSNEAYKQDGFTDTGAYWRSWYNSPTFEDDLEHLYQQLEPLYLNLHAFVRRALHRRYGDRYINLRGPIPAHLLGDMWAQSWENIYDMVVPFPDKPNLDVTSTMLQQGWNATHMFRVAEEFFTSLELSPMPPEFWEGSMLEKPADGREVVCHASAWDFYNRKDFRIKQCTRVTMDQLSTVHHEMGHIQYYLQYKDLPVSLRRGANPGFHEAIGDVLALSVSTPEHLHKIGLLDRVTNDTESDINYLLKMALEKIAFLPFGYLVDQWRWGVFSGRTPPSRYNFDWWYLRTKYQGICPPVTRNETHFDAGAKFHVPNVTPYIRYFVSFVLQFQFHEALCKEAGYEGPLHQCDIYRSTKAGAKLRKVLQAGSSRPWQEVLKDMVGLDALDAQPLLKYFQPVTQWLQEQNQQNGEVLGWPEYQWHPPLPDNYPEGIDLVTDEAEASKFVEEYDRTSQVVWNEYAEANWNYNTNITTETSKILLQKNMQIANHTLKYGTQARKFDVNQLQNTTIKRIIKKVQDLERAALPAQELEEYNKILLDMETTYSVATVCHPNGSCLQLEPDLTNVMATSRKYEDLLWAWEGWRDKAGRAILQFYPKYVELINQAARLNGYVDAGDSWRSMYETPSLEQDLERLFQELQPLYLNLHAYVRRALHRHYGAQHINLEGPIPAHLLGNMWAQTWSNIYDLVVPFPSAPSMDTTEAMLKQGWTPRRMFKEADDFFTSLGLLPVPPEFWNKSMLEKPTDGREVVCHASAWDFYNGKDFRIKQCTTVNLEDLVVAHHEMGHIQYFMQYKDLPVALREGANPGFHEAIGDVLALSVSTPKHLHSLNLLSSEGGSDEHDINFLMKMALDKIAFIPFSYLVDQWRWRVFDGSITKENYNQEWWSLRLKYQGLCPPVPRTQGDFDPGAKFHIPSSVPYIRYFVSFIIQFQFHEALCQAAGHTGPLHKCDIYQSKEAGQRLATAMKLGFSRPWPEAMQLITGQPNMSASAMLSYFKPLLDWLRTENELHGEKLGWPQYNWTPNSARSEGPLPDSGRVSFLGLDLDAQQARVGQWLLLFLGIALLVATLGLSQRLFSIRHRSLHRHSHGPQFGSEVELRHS

SMILES	IC50 (Jack bean urease (JBU)) [µM]	inhibition at 20 µg/mL [1] [%]	IC50 [2] [µM]
CC(=O)NO [AHA, acetohydroxamic acid, reference compound]	3.9		
O=C1CC[C@@H](C(=O)O)N1 [pGlu, pyroglutamic acid]	1.8	98.2 ± 1.12	5.23 ± 1.33
